The text below walks through data of patent US9783552B2, “Soluble guanylate cyclase activators” (MERCK SHARP & DOHME CORP., priority 2013, dated 2017).

Assay [1] concerns the target T1, sGC α1/β1 heterodimer (Homo sapiens, UniProt Q02108+Q02153).
T1 construct: expressed in transfected cells
T1 sequence (Q02108 1-690): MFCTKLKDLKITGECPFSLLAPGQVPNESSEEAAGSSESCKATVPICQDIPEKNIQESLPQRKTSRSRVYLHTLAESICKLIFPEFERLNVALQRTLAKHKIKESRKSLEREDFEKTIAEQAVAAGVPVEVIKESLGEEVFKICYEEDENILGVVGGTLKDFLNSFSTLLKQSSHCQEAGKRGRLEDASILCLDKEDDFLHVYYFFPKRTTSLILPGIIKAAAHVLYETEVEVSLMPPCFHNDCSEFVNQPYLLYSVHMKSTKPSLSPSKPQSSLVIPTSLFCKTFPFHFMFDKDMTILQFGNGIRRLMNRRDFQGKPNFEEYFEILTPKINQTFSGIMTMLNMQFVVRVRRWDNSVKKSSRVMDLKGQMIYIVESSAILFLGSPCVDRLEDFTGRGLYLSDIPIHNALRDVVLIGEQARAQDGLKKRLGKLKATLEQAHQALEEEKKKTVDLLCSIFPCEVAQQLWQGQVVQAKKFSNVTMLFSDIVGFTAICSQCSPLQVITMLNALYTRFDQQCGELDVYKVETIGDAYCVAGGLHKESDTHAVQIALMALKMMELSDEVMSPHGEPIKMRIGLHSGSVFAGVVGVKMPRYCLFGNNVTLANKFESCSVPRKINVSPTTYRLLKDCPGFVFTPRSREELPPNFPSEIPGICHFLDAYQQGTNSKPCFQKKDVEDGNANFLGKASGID
T1 sequence (Q02153 1-619): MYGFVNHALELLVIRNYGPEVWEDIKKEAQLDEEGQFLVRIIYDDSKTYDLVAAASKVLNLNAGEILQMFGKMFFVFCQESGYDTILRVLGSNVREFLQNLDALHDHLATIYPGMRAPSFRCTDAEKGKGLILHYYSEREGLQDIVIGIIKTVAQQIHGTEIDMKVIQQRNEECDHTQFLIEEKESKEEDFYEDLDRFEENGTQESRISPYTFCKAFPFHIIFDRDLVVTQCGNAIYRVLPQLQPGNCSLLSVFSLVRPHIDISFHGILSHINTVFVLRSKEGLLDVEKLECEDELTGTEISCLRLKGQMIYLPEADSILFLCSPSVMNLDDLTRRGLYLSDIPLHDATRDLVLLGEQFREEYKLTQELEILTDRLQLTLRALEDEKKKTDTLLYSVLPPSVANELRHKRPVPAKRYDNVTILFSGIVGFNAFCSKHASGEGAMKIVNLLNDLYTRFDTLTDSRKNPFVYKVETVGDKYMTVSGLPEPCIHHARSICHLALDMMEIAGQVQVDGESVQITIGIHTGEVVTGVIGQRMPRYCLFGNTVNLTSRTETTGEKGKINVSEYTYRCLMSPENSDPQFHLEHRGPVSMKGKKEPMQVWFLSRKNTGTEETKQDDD
The assay can be described thus: Cell-Based sGC Functional Assay (CASA Assay). The note with it: CHO-K1/sGC cells; for EC50: intracellular cGMP by HTRF, 1 hr at 37° C., IP from 4P fit, presence or absence of 1 μM DETA-NO not given; for Emax: cGMP as percentage of maximum cGMP production of Compound A (=100% activation), read-out: % ACT (percent activation). Put shortly:
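CHO-K1 cells stably expressing human sGC α1/β1 were incubated with compound (2.5% DMSO) for 1 hr at 37 °C with 0.5 mM IBMX, with or without 1 μM DETA-NO. Intracellular cGMP was measured by HTRF and expressed as % of the maximal cGMP produced by a reference sGC heme-dependent activator. IP and maximum fold induction came from a 4-parameter fit.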
On the technique in general: In TR-FRET formats the signal depends on donor and acceptor labels being close together.

Assay [2] relates to Spontaneously hypertensive rats (SHR). Description: Acute Efficacy in Spontaneously Hypertensive Rats (SHR). Format: in vivo, rat. The settings on record: single oral gavage. The text has this: Acute Efficacy in Spontaneously Hypertensive Rats (SHR)
Spontaneously hypertensive rats (SHR, male, Charles River) were implanted with DSI TA 11PA-C40 telemetry device (Data Sciences, Inc., St. Paul, Minn.) under isoflurane or ketamine/metomidine anesthesia. The telemetry unit catheter was inserted into the descending aorta via the femoral artery and the telemetry device was implanted subcutaneously in the left flank area. Animals were allowed to recover from surgery for 14 days before the start of any studies. Blood pressure, heart rate, and activity signals from conscious, freely moving rats were recorded continuously for 30 seconds every 10 min. On the day prior to administration of compound, a single oral dose of vehicle (10% transcutol/20% Cremophor/70% water) was administered to all animals to establish baseline control data. The blood pressure lowering efficacy of compound (PO) or vehicle was evaluated following a single oral gavage. Data were collected as hourly averages, and changes in blood pressure were calculated by subtracting control baseline data on an hourly basis. Animals were maintained on normal diet with a 12 h light-dark cycle.
Maximum peak decreases of systolic blood pressure (SBP) in SHR at a particular P.O. dose (mpk milligrams per kilogram) for the following Example compounds are provided. Category A=SBP in SHRs<25 mmHg; Category B=SBP in SHRs 25-40 mmHg; Category C=SBP in SHRs>40 mmHg.

For orientation: EC50 means the concentration that produces a half-maximal response.

Consider `Cn1ncc2c(-c3nc(N)c4c(n3)NC(=O)C4(C)c3ccccc3)nc(CCC(F)(F)C(F)(F)F)nc21` (single isomer, unassigned) [Example 1, 4-Amino-5-methyl-2-(1-methyl-6-(3,3,4,4,4-pentafluorobutyl)-1H-pyrazolo[3,4-d]pyrimidin-4-yl)-5-phenyl-5H-pyrrolo[2,3-d]pyrimidin-6(7H)-one], for which, in assay [1], the midpoint of the response, the EC50, lay at 40 nM and the Emax was found to be 101%. For the same compound, in assay [2] (Dose 1 mpk P.O.), the “Maximum peak decrease of systolic blood pressure (SBP) in SHR, Category” value (“Maximum peak decrease” below) is listed as “C (Category C=SBP in SHRs>40 mmHg)”.

Turning to `[2H]C([2H])([2H])n1ncc2c(-c3nc(N)c4c(n3)NC(=O)C4(C(=O)NC3CC3)C3CC3)nc(CCC(F)(F)C(F)(F)F)nc21` (single isomer, unassigned) [Example 28, 4-Amino-N,5-dicyclopropyl-2-(6-(3,3,4,4,4-pentafluorobutyl)-1-trideuteriomethyl-1H-pyrazolo[3,4-d]pyrimidin-4-yl)-6-oxo-6,7-dihydro-5H-pyrrolo[2,3-d]pyrimidine-5-carboxamide], in assay [1], a half-maximal effect (EC50) was put at 53 nM and the Emax amounted to 112%. Moreover, in assay [2] (Dose 1 mpk P.O.), the “Maximum peak decrease” value is given as “C (Category C=SBP in SHRs>40 mmHg)”.

As for `[2H]C([2H])([2H])n1nnc2c(-c3nc(N)c4c(n3)NC(=O)C4(c3ccc(F)cc3)C3CC3)nc(CCC(F)(F)C(F)(F)F)nc21` (single isomer, unassigned) [Example 69, 4-Amino-5-cyclopropyl-5-(4-fluorophenyl)-2-(5-(3,3,4,4,4-pentafluorobutyl-3-trideuteriomethyl)-3H-[1,2,3]triazolo[4,5-d]pyrimidin-7-yl)-5H-pyrrolo[2,3-d]pyrimidin-6(7H)-one], in assay [1], the EC50 came to 1140 nM and the Emax worked out at 98%. For the same compound, the “Maximum peak decrease” value in assay [2] (Dose 3 mpk P.O.) was “B (Category B=SBP in SHRs 25-40 mmHg)”.

As for `[2H]C([2H])([2H])n1nnc2c(-c3nc(N)c4c(n3)NC(=O)C4(C)c3ccc(Cl)cc3F)nc(CCC(F)(F)C(F)(F)F)nc21` (single isomer, unassigned) [Example 73, 4-Amino-5-(4-chloro-2-fluorophenyl)-5-methyl-2-(5-(3,3,4,4,4-pentafluorobutyl-3-trideuteriomethyl)-3H-[1,2,3]triazolo[4,5-d]pyrimidin-7-yl)-5H-pyrrolo[2,3-d]pyrimidin-6(7H)-one], in assay [1], the EC50 came out at 429 nM and the Emax came to 97%. Also, the “Maximum peak decrease” value in assay [2] (Dose 3 mpk P.O.) is reported as “A (Category A=SBP in SHRs<25 mmHg)”.

`[2H]C([2H])([2H])n1ncc2c(-c3nc(N)c4c(n3)NC(=O)C4(C)C)nc(CCC(F)(F)C(F)(F)F)nc21` [Example 12, 4-Amino-5,5-dimethyl-2-(6-(3,3,4,4,4-pentafluorobutyl)-1-trideuteriomethyl-1H-pyrazolo[3,4-d]pyrimidin-4-yl)-5H-pyrrolo[2,3-d]pyrimidin-6(7H)-one]: in assay [1], the EC50 came out at 285 nM and the Emax was 75%. Also, in assay [2] (Dose 1 mpk P.O.), the “Maximum peak decrease” value was “B (Category B=SBP in SHRs 25-40 mmHg)”.

As for `CCn1ncc2c(-c3nc(N)c4c(n3)NC(=O)C4(C)c3ccccc3)nc(CCC(F)(F)C(F)(F)F)nc21` (single isomer, unassigned) [Example 7, 4-Amino-2-(1-ethyl-6-(3,3,4,4,4-pentafluorobutyl)-1H-pyrazolo[3,4-d]pyrimidin-4-yl)-5-methyl-5-phenyl-5H-pyrrolo[2,3-d]pyrimidin-6(7H)-one], in assay [1], the EC50 turned out to be 85 nM and the Emax was 110%. Also, the “Maximum peak decrease” value in assay [2] (Dose 3 mpk P.O.) is “B (Category B=SBP in SHRs 25-40 mmHg)”.

Take `[2H]C([2H])([2H])n1nnc2c(-c3nc(N)c4c(n3)NC(=O)C4(C)c3ccc(OC)cc3)nc(CCC(F)(F)C(F)(F)F)nc21` (single isomer, unassigned) [Example 71, 4-Amino-5-(4-methoxyphenyl)-5-methyl-2-(5-(3,3,4,4,4-pentafluorobutyl-3-trideuteriomethyl)-3H-[1,2,3]triazolo[4,5-d]pyrimidin-7-yl)-5H-pyrrolo[2,3-d]pyrimidin-6(7H)-one]: in assay [1], the EC50 is 594 nM and the Emax was determined as 67%. In addition, the “Maximum peak decrease” value in assay [2] (Dose 1 mpk P.O.) is “A (Category A=SBP in SHRs<25 mmHg)”.

Turning to `Cn1ncc2c(-c3nc(N)c4c(n3)NC(=O)C4(C)c3ccccc3)nc(CCC(F)(F)F)nc21` (single isomer, unassigned) [Example 4, 4-Amino-5-methyl-2-(1-methyl-6-(3,3,3-trifluoropropyl)-1H-pyrazolo[3,4-d]pyrimidin-4-yl)-5-phenyl-5H-pyrrolo[2,3-d]pyrimidin-6(7H)-one], in assay [1], the EC50 was 130 nM and the Emax was found to be 108%. The “Maximum peak decrease” value in assay [2] (Dose 3 mpk P.O.) was “C (Category C=SBP in SHRs>40 mmHg)”.
